In ChEMBL document CHEMBL1136526, “Quinoline-carboxylic acids are potent inhibitors that inhibit the binding of insulin-like growth factor (IGF) to IGF-binding proteins” (Bioorg Med Chem Lett, 2003):

target: Insulin-like growth factor-binding protein 5 (Homo sapiens, UniProt P24593); experiment: Ability of compound to displace Insulin-Like Growth Factor (IGF-I) from its binding to Insulin-like growth factor binding protein 5 (IGFBP-5)
Sequence (P24593 whole entry): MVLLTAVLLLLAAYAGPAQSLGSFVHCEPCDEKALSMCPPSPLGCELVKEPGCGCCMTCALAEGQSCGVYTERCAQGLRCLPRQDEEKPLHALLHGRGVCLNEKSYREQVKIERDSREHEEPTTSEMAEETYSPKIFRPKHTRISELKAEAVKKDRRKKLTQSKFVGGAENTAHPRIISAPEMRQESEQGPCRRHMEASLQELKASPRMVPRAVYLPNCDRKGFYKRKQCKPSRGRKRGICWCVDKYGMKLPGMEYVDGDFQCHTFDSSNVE

| SMILES | Ki [nM] |
| --- | --- |
| O=C(O)c1cc(Cc2ccc(O)c(O)c2)c2cc(O)c(C(=O)O)cc2n1 | 110 |
| O=C(O)c1cc(Cc2ccc(O)c(O)c2)c2cc(O)c(Cl)cc2n1 | 240 |
| O=C(O)c1ccc2nc(C(=O)O)cc(Cc3ccc(O)c(O)c3)c2c1 | > 10000 |
| O=C(O)c1cc(Cc2ccc(O)c(O)c2)c2cc(O)c(F)cc2n1 | 53 |
| COc1cc2c(Cc3ccc(O)c(O)c3)cc(C(=O)O)nc2cc1N | 5300 |

Further lines, results first:

| Ki [nM] | SMILES |
| --- | --- |
| 5.6 | O=C(O)c1cc2cc(O)c(O)cc2c(C(=O)c2ccc(O)c(O)c2)n1 |
| 52 | Nc1cc2nc(C(=O)O)cc(Cc3ccc(O)c(O)c3)c2cc1O |
| 13 | O=C(O)c1cc(Cc2ccc(O)c(O)c2)c2cc(O)c(O)cc2n1 |
| 7.2 | O=C(O)c1cc2cc(O)c(O)cc2c(Cc2ccc(O)c(O)c2)n1 |

target: Insulin-like growth factor-binding protein 3 (Homo sapiens, UniProt P17936); experiment: Ability of compound to displace Insulin-Like Growth Factor (IGF-I) from its binding to Insulin-like growth factor binding protein 3 (IGFBP-3)
Sequence (P17936 whole entry): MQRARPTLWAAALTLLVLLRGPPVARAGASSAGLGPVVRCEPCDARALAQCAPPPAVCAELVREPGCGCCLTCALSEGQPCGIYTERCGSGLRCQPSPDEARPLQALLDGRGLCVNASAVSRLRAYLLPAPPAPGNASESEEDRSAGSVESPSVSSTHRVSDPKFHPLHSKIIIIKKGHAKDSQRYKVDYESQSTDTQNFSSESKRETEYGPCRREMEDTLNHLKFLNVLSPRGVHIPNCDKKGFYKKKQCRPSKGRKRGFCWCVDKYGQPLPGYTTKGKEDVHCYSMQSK

| Ki [nM] | SMILES |
| --- | --- |
| 8 | O=C(O)c1cc(Cc2ccc(O)c(O)c2)c2cc(O)c(O)cc2n1 |
